The Ki is the dissociation constant of the complex between target and ligand, obtained from inhibition or displacement. Read a low Ki as higher affinity.

The test has as its target T1, cloned human glucagon receptor (Homo sapiens, UniProt P47871).
T1 construct: The hGlucR cDNA is subcloned into the expression plasmid phD; expressed in transfected cells; host or cells: 293 HEK cells, hygromycin-selected; crude plasma membranes
Description: Glucagon Receptor (hGlucR) Binding Assay. As for the experimental part:
Crude plasma membranes are prepared using cells from suspension culture. […] The second supernate is combined with the first supernate.
The specific activity is 2200 Ci/mmol.

T1 sequence (P47871 26-477): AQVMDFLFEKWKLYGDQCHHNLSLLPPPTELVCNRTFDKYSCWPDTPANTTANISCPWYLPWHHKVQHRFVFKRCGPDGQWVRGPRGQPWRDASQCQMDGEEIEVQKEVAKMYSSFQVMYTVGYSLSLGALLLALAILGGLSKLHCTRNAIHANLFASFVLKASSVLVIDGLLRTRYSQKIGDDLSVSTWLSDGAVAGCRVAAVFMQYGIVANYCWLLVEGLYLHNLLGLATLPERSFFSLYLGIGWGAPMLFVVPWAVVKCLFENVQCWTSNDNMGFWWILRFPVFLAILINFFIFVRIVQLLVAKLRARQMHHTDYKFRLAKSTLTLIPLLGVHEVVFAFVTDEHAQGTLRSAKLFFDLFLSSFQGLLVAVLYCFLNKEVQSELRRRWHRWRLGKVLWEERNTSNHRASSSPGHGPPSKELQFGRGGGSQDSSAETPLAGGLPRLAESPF

The compound `CCCC(Sc1cc(C)c(-c2ccc(C(F)(F)F)cc2)c(C)c1)c1ccc(C(=O)NCc2nnn[nH]2)s1` (stereo not shown) showed an inhibitory constant (Ki) of 36 nM.

The values are drawn from patent US7807702B2 (Eli Lilly and Company, priority 2005, dated 2010).
